Data on six compounds can be found in publication PMC7734625, “Stabilization Strategies for Linear Minigastrin Analogues: Further Improvements via the Inclusion of Proline into the Peptide Sequence” (Journal of Medicinal Chemistry, 2020).

Series [1] in a line: stability in rat kidney homogenate. Format: in vitro ADME. The note with it: 120 min incubation, 37 °C. As to the method:
(§1) In vitro stability studies characterizing the complex stability as well as the metabolic stability of the radiolabeled peptide analogues were carried out in PBS, fresh human serum, and rat liver and rat kidney homogenates. Organ homogenates were prepared from freshly dissected organs homogenized (IKA-Werke, Staufen, Germany) for 1 min at room temperature (RT) in a 20 mM 4-(2-hydroxyethyl)-1-piperazineethanesulfonic acid (HEPES) buffer at pH 7.3 (30% w/v). A fraction of 0.1 mL of radiolabeled peptide diluted in PBS/HEPES was added to 0.9 mL of medium reaching a final concentration of ∼500 pmol/mL and incubated at 37 °C for up to 120 min in rat organ homogenates (n = 2) and up to 24 h in human serum or PBS (n = 1). At each time point, 100 μL of sample was taken treated with 150 μL of ACN to precipitate proteins centrifuged (2000g, 2 min), diluted with water (1:1), and a fraction of 100 μL was injected to the analytical HPLC system. For serum and tissue homogenates, only the soluble phase extracted after centrifugation was analyzed, whereas the radioactivity lost in the pellet was not considered.

Series [2] can be described thus: in vivo stability studies in BALB/c mice. To be noted: i.v. How it is done:
Metabolic studies evaluating the stability of the radioligands were carried out in 7- to 8-week-old female BALB/c mice. With the ^111In-labeled peptide derivatives, the studies were performed for the time point of 10 min p.i. (n = 2). With the ^177Lu-labeled peptide derivatives, additional studies were also carried out for the time point of 30 min and 60 min p.i. (n = 1 for each time point). To allow monitoring of the metabolites by analytical HPLC, the mice were injected with a higher amount of radioactivity (6–9 MBq indium-111, 30–45 MBq lutetium-177) corresponding to ∼1 nmol total peptide intravenously through a lateral tail vein. At different time points, the mice were euthanized by cervical dislocation and urine and a blood sample was collected. Liver and kidneys were excised and homogenized in 20 mM HEPES buffer pH 7.3. The amount of intact radiopeptide and the formation of metabolites was analyzed by analytical HPLC. Prior to injection into the HPLC system, all samples were treated as described for human serum and rat organ homogenate samples.

The subject of series [3] is A431-CCK2R/A431-mock xenografts. In words: biodistribution in A431-CCK2R/A431-mock xenografted BALB/c nude mice. Format: in vivo. As to the method: Biodistribution studies evaluating the tumor uptake of the radiolabeled peptides were performed in 7- to 9-week-old female athymic BALB/c nude mice (Charles River, Sulzfeld, Germany). For the induction of tumor xenografts, 150 μL of DMEM containing 2 × 10^6 A431-CCK2R and A431-mock cells were injected subcutaneously in the right and left flank of each mouse, respectively. And 10–14 days after injection, tumors reached a medium weight of ∼0.25 g. The mice were divided into groups of four and injected intravenously via a lateral tail vein with 0.2 MBq of ^111In-labeled compound (0.02 nmol) and 0.7 and 1.5 MBq of the ^177Lu-labeled compound (0.02 and 0.15 nmol). At 4 and 12 h p.i., the mice were sacrificed and the tumors and other tissues (blood, lung, heart, muscle, spleen, intestine, liver, kidneys, stomach, and pancreas) were removed, weighed, and their radioactivity measured in the γ counter together with the rest of the body. Initial biodistribution studies were performed with the three ^177Lu-labeled CCK2R-targeting ligands at an injected peptide amount of 20 pmol for the time point of 4 h p.i. From these studies, two peptide analogues were selected to further characterize the biodistribution profile also at a later time point of 12 h p.i. and at a higher injected peptide amount of 150 pmol. Additional animal studies were performed for the ^111In-labeled conjugates. Percentage of injected activity per gram tissue (%IA/g), tumor-to-organ activity ratios, as well as whole body activity were calculated for each sample and statistical analysis using independent two-population t-test (significance level p < 0.05) was performed using Origin software. For the comparison of more than two groups, data were analyzed using one-way analysis of variance (ANOVA) Holm–Bonferroni-adjusted post hoc analysis (significance level p < 0.05) using Microsoft Excel 2010 software (Microsoft Excel 2010, Microsoft Corporation, WA).

A short description of series [4]: log D, octanol/PBS distribution. Format: physicochemical. The note with it: 111In-labeled peptide.
The format of series [5] is in vitro ADME. The note with it: 120 min, pH 7.3. As to the method: as §1
The target in series [6] is T1, human CCK2R (Homo sapiens, UniProt P32239).
T1 construct: expressed in transfected cells; host or cells: A431 human epidermoid carcinoma cells, stably transfected (pCR3.1), provided by Dr. Luigi Aloj
T1 sequence (P32239 1-447): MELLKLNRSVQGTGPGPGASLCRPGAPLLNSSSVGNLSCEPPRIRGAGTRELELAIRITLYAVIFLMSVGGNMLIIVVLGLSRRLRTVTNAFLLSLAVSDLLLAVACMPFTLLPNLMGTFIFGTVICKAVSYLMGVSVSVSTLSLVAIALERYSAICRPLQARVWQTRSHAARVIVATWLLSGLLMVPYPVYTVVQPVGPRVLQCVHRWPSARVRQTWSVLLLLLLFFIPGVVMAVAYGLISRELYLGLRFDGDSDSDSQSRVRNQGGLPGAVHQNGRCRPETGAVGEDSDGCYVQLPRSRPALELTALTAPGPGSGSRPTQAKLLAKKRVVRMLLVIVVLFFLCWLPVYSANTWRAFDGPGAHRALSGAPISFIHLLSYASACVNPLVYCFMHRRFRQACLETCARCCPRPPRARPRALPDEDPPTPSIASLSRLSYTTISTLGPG
In words: competitive binding against [125I][3-iodo-Tyr12,Leu15]gastrin-I on A431-CCK2R cells. The note with it: unlabeled peptide, three independent assays, read-out: apparent IC50. As to the method:
Binding assays were carried in 96-well filter plates (MultiScreenHTS-FB, Merck Group, Darmstadt, Germany) pretreated with 10 mM TRIS/139 mM NaCl buffer, pH 7.4 (TRIS-buffer) (2 × 250 μL) before 400 000 A431-CCK2R cells per well were added in 35 mM HEPES buffer, pH 7.4, containing 10 mM MgCl2, 14 μM bacitracin, and 0.5% bovine serum albumin (BSA).[46] Competition assays were performed three times in triplicate using increasing concentrations of competitor (0.003–1000 nM) and a constant amount of radioligand (∼40 000 cpm). After 1 h of incubation at room temperature (RT), the medium was removed and the filters were rapidly rinsed with ice-cold TRIS-buffer (2 × 200 μL), removed and counted in a γ-counter. Half-maximal inhibitory concentration (IC50) values were calculated following nonlinear regression with Origin software (MicroCal Origin 6.1, Northampton, MA). Even though incubation was performed in a hypoosmotic solution disturbing the integrity of the cell membrane, we cannot totally exclude that a limited extent of internalization affecting the binding equilibrium occurred. Therefore, the binding affinity measurements obtained from these studies are presented as “apparent IC50” rather than IC50.

For series [7], the target named is T1, human CCK2R. In words: calcium mobilization assay on A431-CCK2R cells. Format: cell-based. To be noted: mean ± SEM.
Description: (§2) For calcium mobilization assays evaluating receptor activation, A431-CCK2R cells stably transfected with human CCK2R and AR42J cells expressing rat CCK2R were seeded in flat clear bottom black 96-well plates (Corning, Bagneaux-sur-Loing, France), previously coated with poly-D-ornithine (100 μg/mL, 1 h, 37 °C), at densities of 60 000 and 120 000 cells/well, respectively. After 24 h in culture in a 5% CO2 atmosphere, the cells were rinsed twice with modified HBSS buffer (20 mM HEPES, 0.5 mM MgCl2, 2.6 mM CaCl2, 7.7 mM Na2CO3, 1.4 mM MgSO4, 5.3 mM KCl, 138 mM NaCl, 0.1% BSA, 5.5 mM glucose, 2.5 mM probenecid, pH 7.4) (Sigma-Aldrich, Saint-Quentin-Fallavier, France) and loaded (40 min at 37 °C) with the calcium-sensitive dye Fluo-4 AM (ThermoFisher Scientific, Montigny-Le-Bretonneux, France) containing pluronic acid (20% in dimethyl sulfoxide (DMSO)). […] Briefly, after 18 s recording in basal conditions, 50 μL of graded concentrations of the investigated peptides was added to the incubation medium with a built-in eight-channel pipettor to assess activity. […] EC50 values were calculated with the Prism 4.0 software using a logistic equation. Results were expressed as mean ± standard error of the mean (SEM) for at least three independent experiments in triplicate.
The target in a further series is T2, rat CCK2R (Rattus norvegicus, UniProt P30553).
T2 construct: physiologically expressing the rat CCK2R; host or cells: AR42J rat pancreatic tumor cells
T2 sequence (P30553 1-452): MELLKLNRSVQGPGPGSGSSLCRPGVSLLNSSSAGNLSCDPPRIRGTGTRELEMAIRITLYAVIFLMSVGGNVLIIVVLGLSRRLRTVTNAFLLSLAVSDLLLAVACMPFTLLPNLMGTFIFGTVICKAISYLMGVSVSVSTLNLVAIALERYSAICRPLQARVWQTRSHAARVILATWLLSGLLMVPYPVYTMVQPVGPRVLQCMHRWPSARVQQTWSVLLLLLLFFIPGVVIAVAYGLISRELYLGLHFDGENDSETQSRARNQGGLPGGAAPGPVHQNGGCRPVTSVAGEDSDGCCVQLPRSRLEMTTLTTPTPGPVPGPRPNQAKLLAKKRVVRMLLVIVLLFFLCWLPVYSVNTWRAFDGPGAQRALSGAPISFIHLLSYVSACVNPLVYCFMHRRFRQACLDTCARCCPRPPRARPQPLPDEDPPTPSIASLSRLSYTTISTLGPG
The experiment in a line: calcium mobilization assay on AR42J cells. Format: cell-based. The note with it: mean ± SEM.

Series [8] deals with T1, human CCK2R. To be noted: A431-CCK2R cells, previous assays; cited from earlier work.

Where two headings read alike, the source gives them in different places. Non-standard residues stand in square brackets, D forms with d. Residues, ends and D or L forms follow the SMILES beside them. *: point of attachment. DOTA = O=C(O)CN1CCN(CC(=O)O)CCN(CC(=O)*)CCN(CC(=O)O)CC1; 1Nal = N[C@@H](Cc1cccc2ccccc12)C(=O)O; NMeNle = CCCC[C@H](NC)C(=O)O

Description for rat CCK2R: as §2

Regarding `CCCC[C@@H](C(=O)N[C@@H](CC(=O)O)C(=O)N[C@@H](Cc1cccc2ccccc12)C(N)=O)N(C)C(=O)[C@H](Cc1c[nH]c2ccccc12)NC(=O)CNC(=O)[C@H](Cc1ccc(O)cc1)NC(=O)[C@@H]1CCCN1C(=O)[C@@H](CCC(=O)O)NC(=O)CN1CCN(CC(=O)O)CCN(CC(=O)O)CCN(CC(=O)O)CC1` [[^111In]In-1] [metal not drawn] ({DOTA}-[dE]PYGW[NMeNle]D[1Nal]-NH2), the “intact radiopeptide in rat kidney homogenate” value in series [1] is recorded as ~5%. Moreover, in series [2] (10 min p.i.), the “intact radiopeptide in blood” value was determined as 80.0 ± 5.2%, the “intact radiopeptide in kidneys” value is 23.4 ± 4.2%, the “intact radiopeptide in liver” value is 76.0 ± 0.4% and the “intact radiopeptide in urine” value was determined as 21.8 ± 8.1%.

Consider `CCCC[C@@H](C(=O)N[C@@H](CC(=O)O)C(=O)N[C@@H](Cc1cccc2ccccc12)C(N)=O)N(C)C(=O)[C@H](Cc1c[nH]c2ccccc12)NC(=O)CNC(=O)[C@H](Cc1ccc(O)cc1)NC(=O)[C@@H]1CCCN1C(=O)[C@@H](CCC(=O)O)NC(=O)CN1CCN(CC(=O)O)CCN(CC(=O)O)CCN(CC(=O)O)CC1` [[^177Lu]Lu-1] [metal not drawn] ({DOTA}-[dE]PYGW[NMeNle]D[1Nal]-NH2), for which the “intact radiopeptide in rat kidney homogenate” value in series [1] is listed as ~5%. Besides, in series [2] (60 min p.i., n = 1), the “intact radiopeptide in blood” value stood at 56.6%, the “intact radiopeptide in kidneys” value came out at 8.1%, the “intact radiopeptide in liver” value was found to be 30.8% and the “intact radiopeptide in urine” value was 23.0%. Moreover, the “tumor uptake in A431-CCK2R xenografts” value in series [3] (20 pmol, 4 h p.i.) came to 35 % IA/g. In series [3] (150 pmol, 4 h p.i.), the “uptake in A431-mock xenografts” value came to 0.32 ± 0.14 % IA/g, the uptake in blood turned out to be 0.07 ± 0.04 % IA/g, the uptake in heart is on record as 0.09 ± 0.03 % IA/g and the uptake in spleen is on record as 0.18 ± 0.05 % IA/g. In addition, the tumor retention in series [3] (A431-CCK2R xenografts, 12 h p.i. relative to 4 h p.i., 20 pmol) is > 60%. Moreover, the “reduction of tumor uptake in A431-CCK2R xenografts” value in series [3] (injected peptide amount increased to 150 pmol vs 20 pmol, 4 h p.i.) is “about 50%”.

On to `CCCC[C@@H](C(=O)N[C@@H](CC(=O)O)C(=O)N[C@@H](Cc1cccc2ccccc12)C(N)=O)N(C)C(=O)[C@H](Cc1c[nH]c2ccccc12)NC(=O)CNC(=O)[C@H](Cc1ccc(O)cc1)NC(=O)[C@@H]1CCCN1C(=O)[C@@H](CCC(=O)O)NC(=O)CN1CCN(CC(=O)O)CCN(CC(=O)O)CCN(CC(=O)O)CC1` [compound 1] ({DOTA}-[dE]PYGW[NMeNle]D[1Nal]-NH2), for which the logD in series [4] is -2.03 ± 0.1. Also, the “intact radiopeptide in rat liver homogenate” value in series [5] is 39-53%. In addition, on human CCK2R [6], the IC50 amounted to 1.4 ± 0.6 nM. Moreover, the concentration for a half-maximal effect (EC50) was determined as 12.3 ± 2.4 nM on human CCK2R [7] and 1.74 ± 0.81 nM at rat CCK2R.

Turning to `CCCC[C@@H](C(=O)N[C@@H](CC(=O)O)C(=O)N[C@@H](Cc1cccc2ccccc12)C(N)=O)N(C)C(=O)[C@H](Cc1c[nH]c2ccccc12)NC(=O)CNC(=O)[C@@H]1CCCN1C(=O)[C@H](Cc1ccc(O)cc1)NC(=O)[C@@H](CCC(=O)O)NC(=O)CN1CCN(CC(=O)O)CCN(CC(=O)O)CCN(CC(=O)O)CC1` [compound 2] ({DOTA}-[dE]YPGW[NMeNle]D[1Nal]-NH2), in series [4], the pH-dependent lipophilicity (logD) is -1.75 ± 0.1. Also, the “intact radiopeptide in rat liver homogenate” value in series [5] is on record as 50-61%. Also, the concentration for half-maximal inhibition (IC50) at human CCK2R [6] was found to be 0.6 ± 0.3 nM. Besides, the EC50 at human CCK2R [7] stood at 14.2 ± 2.07 nM; on rat CCK2R, 1.91 ± 0.49 nM.

`CCCC[C@@H](C(=O)N[C@@H](CC(=O)O)C(=O)N[C@@H](Cc1cccc2ccccc12)C(N)=O)N(C)C(=O)[C@H](Cc1c[nH]c2ccccc12)NC(=O)[C@@H]1CCCN1C(=O)[C@H](Cc1ccc(O)cc1)NC(=O)[C@H](C)NC(=O)[C@@H](CCC(=O)O)NC(=O)CN1CCN(CC(=O)O)CCN(CC(=O)O)CCN(CC(=O)O)CC1` [compound 3] ({DOTA}-[dE]AYPW[NMeNle]D[1Nal]-NH2): the log distribution coefficient (logD) in series [4] is -2.05 ± 0.08. Also, the IC50 on human CCK2R [6] was 1.3 ± 0.8 nM. In addition, the concentration for a half-maximal effect (EC50) on human CCK2R [7] was found to be 12.4 ± 3.83 nM; at rat CCK2R, 1.27 ± 0.72 nM.

As to “DOTA-MG11: DOTA conjugate of the truncated MG analogue [DGlu^1,DesGlu^2–6]MG (MG11) (EAYGWMDF; Synthetic [DGlu1,desGlu2-6]minigastrin: residue 1 is D-Glu, N-terminal DOTA, C-terminal amide (Phe-NH2), Tyr not sulfated)”, the concentration for half-maximal inhibition (IC50) with human CCK2R [8] was 0.9 ± 0.3 nM.
